According to ChEMBL document CHEMBL3045008, “Toxicity, inheritance of fenpyroximate resistance, and detoxification-enzyme levels in a laboratory-selected fenpyroximate-resistant strain of Tetranychus urticae Koch (Acari: Tetranychidae)” (2011):

Tests used:
Assay type in all cases: functional
Tetranychus urticae [1] = assay: Insecticidal activity against Tetranychus urticae FPY 14 (two-spotted spider mite) assessed as mortality at 26 +/- 2 degC with 60 +/- 5% RH for first 24 hr
Tetranychus urticae [2] = assay: Resistant ratio, LC50 for Tetranychus urticae FPY 14 (two-spotted spider mite) to LC50 for Tetranychus urticae GSS
Tetranychus urticae [3] = assay: Insecticidal activity against Tetranychus urticae GSS (two-spotted spider mite) assessed as mortality at 26 +/- 2 degC with 60 +/- 5% RH for first 24 hr

Row | SMILES | LC50 (Tetranychus urticae [1]) | RatioLC50 (Tetranychus urticae [2]) | LC50 (Tetranychus urticae [3]) | LC60 (Tetranychus urticae [1]) | LC90 (Tetranychus urticae [1]) | LC60 (Tetranychus urticae [3]) | LC90 (Tetranychus urticae [3])
1 | Cc1c(COC(=O)[C@@H]2[C@H](/C=C(\Cl)C(F)(F)F)C2(C)C)cccc1-c1ccccc1 (relative stereo) [BIFENTHRIN] | 12.77 mgAi/L | <1 | 54.53 mgAi/L | – | – | – | –
2 | CC[C@H](C)[C@H]1O[C@]2(C=C[C@@H]1C)C[C@@H]1C[C@@H](C/C=C(\C)[C@@H](O[C@H]3C[C@H](OC)[C@@H](O[C@H]4C[C@H](OC)[C@@H](O)[C@H](C)O4)[C@H](C)O3)[C@@H](C)/C=C/C=C3\CO[C@@H]4[C@H](O)C(C)=C[C@@H](C(=O)O1)[C@]34O)O2.CO[C@H]1C[C@H](O[C@H]2[C@H](C)O[C@@H](O[C@@H]3/C(C)=C/C[C@@H]4C[C@@H](C[C@]5(C=C[C@H](C)[C@@H](C(C)C)O5)O4)OC(=O)[C@@H]4C=C(C)[C@@H](O)[C@H]5OC/C(=C\C=C\[C@@H]3C)[C@]54O)C[C@@H]2OC)O[C@@H](C)[C@@H]1O [ABAMECTIN] | 1.56 mgAi/L | 7.8 | 0.2 mgAi/L | – | – | – | –
3 | Cc1ccc(/N=C/N(C)/C=N/c2ccc(C)cc2C)c(C)c1 [AMITRAZ] | 167.13 mgAi/L | 2.78 | 60.07 mgAi/L | – | – | – | –
4 | CCOP(=S)(OCC)Oc1nc(Cl)c(Cl)cc1Cl [CHLORPYRIFOS] | 85.84 mgAi/L | 6.9 | 12.44 mgAi/L | – | – | – | –
5 | Clc1ccccc1-c1nnc(-c2ccccc2Cl)nn1 [CLOFENTEZINE] | 68.52 mgAi/L | 4.78 | 14.32 mgAi/L | – | – | – | –
6 | Cc1nn(C)c(Oc2ccccc2)c1/C=N/OCc1ccc(C(=O)OC(C)(C)C)cc1 [FENPYROXYMATE] | – | – | – | 319.1 mgAi/L | 1637.86 mgAi/L | 5.1 mgAi/L | 29.5 mgAi/L
7 | C#CCOS(=O)OC1CCCCC1Oc1ccc(C(C)(C)C)cc1 (configuration not stated) [PROPARGITE] | 482.52 mgAi/L | 6.43 | 75 mgAi/L | – | – | – | –
